Results reported in patent publication US20130295150A1, “ELECTRICITY-GENERATING PARTICULATES AND THE USE THEREOF” (Johnson & Johnson Consumer Companies, Inc., priority 2007, published 2013).

Tests used:
Type in all cases: cell-based
Human keratinocyte cells = assay: Stimulation of hydrogen peroxide production, CM-H2DCFDA fluorescence; details: 0.03% positive control
Experimental: Human keratinocyte cells were seeded in assay plates at identical densities and incubated for 48 hours at 37° C. with 5% CO2. […] Cells were treated with galvanic particulates or zinc or copper metal powders alone over increasing amounts of time. Treatment of control wells with 0.03% hydrogen peroxide served as a positive control. Hydrogen peroxide production was quantitated using a fluorescent plate reader set at wavelengths 485 excitation/530 emission. The results are depicted in Tables 17 and 18.

[1] = tested on: Human T-cells stimulated with PHA; assay: Human T-cell cytokine release stimulated with PHA; details: 100 ug/ml, 10 μg/mL PHA, 48-hour incubation; for Cytokine Release Percent (%) Reduction: IL-2
Experimental: Human T-cells were collected from a healthy adult […] via leukopheresis. The T-cells were isolated from peripheral blood via Ficol gradient, and the cells were adjusted to a density of 1×10^6 cells/mL in serum free lymphocyte growth medium (ExVivo-15, Biowhittaker, Walkersville, Md.). Human T-cells were stimulated with 10 μg/mL PHA in the presence or absence of test compounds following published method (Hamamoto Y., et al. Exp Dermatol 2:231-235, 1993). Following a 48-hour incubation at 37° C. with 5% CO2, supernatant was removed and evaluated for cytokine content using commercially available multiplex cytokine detection kit.

C. albicans [2] = assay: Agar disc microwell assay, log reduction by plate count; details: about 6 log CFU in saline, 37° C., 200 rpm
Experimental: (§1) Agar discs containing copper-zinc galvanic particulates from Example 1(a) or zinc acetate at a concentration of 0.1%, 0.5%, or 1% were exposed to about 6 log CFU of MRSA or C. albicans in saline in microwell plate and incubated at 37° C. and 200 rpm for 24 hrs. Plate count was performed to enumerate the viable microorganisms after the incubation. Log reduction was defined as the log difference of the inoculum before and after the incubation with the test articles (e.g., a log reduction of 6 for the inoculum of 6 log means all the inoculum were killed, and a log reduction of 3 for the inoculum of 6 log means […] of the inoculum were killed).
(§2) Agar discs containing 0.1% copper coated zinc galvanic particulates from Example 1(a) or zinc acetate at 1% or copper acetate at 0.1% were exposed to about 6 log CFU of MRSA or C. albicans in saline in microwell plates, and incubated at 37° C., 200 rpm for 24 hr.
(§3) Plate count was performed to enumerate the viable microorganisms after the incubation. Log reduction was defined as the log difference of the inoculum before and after the incubation with the test articles.

MRSA [3] = assay: as above; details: about 6 log CFU in saline, 37° C., 200 rpm
Experimental: as §1, §2, §3

C. albicans [4] = assay: Zone of inhibition testing versus copper acetate and zinc acetate; details: about 6 log CFU, 37° C., 24 hr
Experimental: (§4) Zone of inhibition testing was performed on agar discs containing copper-zinc galvanic particulates from Example 1(a) at 0.5%, Zn acetate at 0.5%, and Cu acetate at 0.1%. The discs were placed on TSA agar surface, inoculated with about 6 log CFU of MRSA or C. albicans, and incubated at 37° C. for 24 hr.

MRSA [5] = assay: as above; details: about 6 log CFU, 37° C., 24 hr
Experimental: as §4

C. albicans [6] = assay: Sustained efficacy, zone of inhibition on day 1 and after transfer to new plate on day 2; details: 1% in agar disc
Experimental: (§5) Agars discs containing either galvanic particulates as described in Example 1(a) or zinc acetate at 1% were placed on TSA agar surface inoculated with about 6 log CFU of MRSA or C. albicans and incubated at 37° C. for 24 hr (day-1).

MRSA [7] = assay: as above; details: 1% in agar disc
Experimental: as §5

[8] = Table 2, test material 0.10% in agar disc, 24 hrs
[9] = Table 2, test material 0.50% in agar disc, 24 hrs
[10] = Table 2, test material 1.00% in agar disc, 24 hrs
[11] = Table 4, 1% in agar disc, 24 hr
[12] = same disc moved to newly inoculated TSA plate, 24 hr (day-2)
[13] = Table 4, 0.1% in agar disc, 24 hr

Compound: OO [Example H2O2, hydrogen peroxide]
- Hydrogen peroxide production (fluorescence), 30 Minutes (Human keratinocyte cells): 416.6 ± 61.3
- Hydrogen peroxide production (fluorescence), 60 Minutes (Human keratinocyte cells): 591.4 ± 82.7
- Hydrogen peroxide production (fluorescence), 200 Minutes (Human keratinocyte cells): 1117.5 ± 153.8
- Hydrogen peroxide production (fluorescence), 240 Minutes (Human keratinocyte cells): 1214.8 ± 149.7
- Hydrogen peroxide production (fluorescence), Baseline (Human keratinocyte cells): 98.1 ± 4.4

Compound: C[C@]12CCC(=O)C=C1CC[C@@H]1[C@@H]2[C@@H](O)C[C@@]2(C)[C@H]1CC[C@]2(O)C(=O)CO [Hydrocortisone]
- Cytokine Release IL-2 [1]: 7.69 ± 5.64 pmol/mL
- Cytokine Release Percent (%) Reduction [1]: 98.6%

Compound: CC(=O)[O-].CC(=O)[O-].[Zn+2] [Zinc Acetate, zinc acetate]
- LOG REDUCTION C. albicans (C. albicans [2]; [8]): 2.2
- LOG REDUCTION C. albicans (C. albicans [2]; [9]): 2.9
- LOG REDUCTION C. albicans (C. albicans [2]; [10]): 4.7
- LOG REDUCTION C. albicans (C. albicans [2]; [11]): 4.7
- LOG REDUCTION MRSA (MRSA [3]; [8]): 1.7
- LOG REDUCTION MRSA (MRSA [3]; [9]): 3.2
- LOG REDUCTION MRSA (MRSA [3]; [10]): 5.1
- LOG REDUCTION MRSA (MRSA [3]; [11]): 5.1
- zone of inhibition (C. albicans [4]; 0.5% in agar disc on TSA agar): smaller zone of inhibition, approximately one half the radius
- zone of inhibition (MRSA [5]; 0.5% in agar disc on TSA agar): smaller zone of inhibition, approximately one half the radius
- zone of inhibition, day 1 (C. albicans [6]; 37° C., 24 hr (day-1)): produce a zone of inhibition
- zone of inhibition, day 2 (C. albicans [6]; [12]): did not show any inhibition
- zone of inhibition, day 1 (MRSA [7]; 37° C., 24 hr (day-1)): produce a zone of inhibition
- zone of inhibition, day 2 (MRSA [7]; [12]): did not show any inhibition

Compound: [Cl-].[Cl-].[Zn+2] [Zinc Chloride]
- Cytokine Release IL-2 [1]: 566.3 ± 20.6 pmol/mL
- Cytokine Release Percent (%) Reduction [1]: −0.6%

Compound: copper acetate
- LOG REDUCTION C. albicans (C. albicans [2]; [13]): 0.3
- LOG REDUCTION MRSA (MRSA [3]; [13]): 0.2
- zone of inhibition (C. albicans [4]; 0.1% in agar disc on TSA agar): did not show any visible zone of inhibition
- zone of inhibition (MRSA [5]; 0.1% in agar disc on TSA agar): did not show any visible zone of inhibition
- Cytokine Release IL-2 [1]: 312.9 ± 96.8 pmol/mL
- Cytokine Release Percent (%) Reduction [1]: 44.4%
